Assay results published in PubChem BioAssay (NCI).
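Grown in 96-well plates, cells were treated for 48 hours with each compound at five concentrations. Insufficient inhibition: endpoint recorded as highest concentration tested. TGI: total growth inhibition.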

Tests used:
Assay in all cases: NCI anticancer screen, dose series, 48 h
786-0 renal = test system: 786-0 renal
A498 renal = test system: A498 renal
A549 NSCLC = test system: A549 NSCLC
ACHN renal = test system: ACHN renal
BT-549 breast = test system: BT-549 breast
CAKI-1 renal = test system: CAKI-1 renal
CCRF-CEM leukemia = test system: CCRF-CEM leukemia
COLO 205 colon = test system: COLO 205 colon
DU-145 prostate = test system: DU-145 prostate
EKVX NSCLC = test system: EKVX NSCLC
HCC-2998 colon = test system: HCC-2998 colon
HCT-116 colon = test system: HCT-116 colon
HCT-15 colon = test system: HCT-15 colon
HL-60(TB) leukemia = test system: HL-60(TB) leukemia
HOP-62 NSCLC = test system: HOP-62 NSCLC
HOP-92 NSCLC = test system: HOP-92 NSCLC
HS 578T breast = test system: HS 578T breast
HT29 colon = test system: HT29 colon
IGROV1 ovarian = test system: IGROV1 ovarian
K-562 leukemia = test system: K-562 leukemia
KM12 colon = test system: KM12 colon
LOX IMVI melanoma = test system: LOX IMVI melanoma
M14 melanoma = test system: M14 melanoma
MALME-3M melanoma = test system: MALME-3M melanoma
MCF7 breast = test system: MCF7 breast
MDA-MB-231 breast = test system: MDA-MB-231 breast
MDA-MB-435 = test system: MDA-MB-435
MDA-N = test system: MDA-N
MOLT-4 leukemia = test system: MOLT-4 leukemia
NCI-H226 lung = test system: NCI-H226 lung
NCI-H23 lung = test system: NCI-H23 lung
NCI-H460 lung = test system: NCI-H460 lung
NCI-H522 lung = test system: NCI-H522 lung
NCI/ADR-RES ovarian = test system: NCI/ADR-RES ovarian
OVCAR-3 ovarian = test system: OVCAR-3 ovarian
OVCAR-4 ovarian = test system: OVCAR-4 ovarian
OVCAR-5 ovarian = test system: OVCAR-5 ovarian
OVCAR-8 ovarian = test system: OVCAR-8 ovarian
PC-3 prostate = test system: PC-3 prostate
RPMI-8226 leukemia = test system: RPMI-8226 leukemia
RXF 393 renal = test system: RXF 393 renal
SF-268 CNS = test system: SF-268 CNS
SF-295 CNS = test system: SF-295 CNS
SF-539 CNS = test system: SF-539 CNS
SK-MEL-2 melanoma = test system: SK-MEL-2 melanoma
SK-MEL-28 melanoma = test system: SK-MEL-28 melanoma
SK-MEL-5 melanoma = test system: SK-MEL-5 melanoma
SK-OV-3 ovarian = test system: SK-OV-3 ovarian
SN12C renal = test system: SN12C renal
SNB-19 CNS = test system: SNB-19 CNS
SNB-75 CNS = test system: SNB-75 CNS
SW-620 colon = test system: SW-620 colon
T-47D breast = test system: T-47D breast
TK-10 renal = test system: TK-10 renal
U251 CNS = test system: U251 CNS
UACC-257 melanoma = test system: UACC-257 melanoma
UACC-62 melanoma = test system: UACC-62 melanoma
UO-31 renal = test system: UO-31 renal

Question: With `CC(=O)NC1C(OCc2ccccc2)OC(CO)C(O)C1OCC(=O)N1CCCC1C(=O)N[C@@H](CCC(=O)NCCNCCNc1c2ccccc2nc2cccc([N+](=O)[O-])c12)C(N)=O` (stereo partly specified) as the compound, how does the TGI (786-0 renal) read?
Answer: The TGI was 9.17 µM.

Question: And the TGI (A498 renal)?
Answer: Its TGI is 9.21 µM.

Question: What about the TGI (A549 NSCLC) of the same compound?
Answer: The TGI was 9.83 µM.

Question: And the TGI (ACHN renal)?
Answer: The TGI was 15.3 µM.

Question: And the TGI (BT-549 breast)?
Answer: Its TGI is 18.9 µM.

Question: And the TGI (CAKI-1 renal)?
Answer: The TGI was 16.5 µM.

Question: And the TGI (CCRF-CEM leukemia)?
Answer: Its TGI is 6.22 µM.

Question: What about the TGI (COLO 205 colon) of the same compound?
Answer: Its TGI is 4.97 µM.

Question: What about the TGI (DU-145 prostate) of the same compound?
Answer: The TGI was greater than 21.2 µM.

Question: And the TGI (EKVX NSCLC)?
Answer: The TGI was 26.6 µM.

Question: What about the TGI (HCC-2998 colon) of the same compound?
Answer: Its TGI is 8.46 µM.

Question: And the TGI (HCT-116 colon)?
Answer: Its TGI is 5.26 µM.

Question: What about the TGI (HCT-15 colon) of the same compound?
Answer: The TGI was 11.8 µM.

Question: And the TGI (HL-60(TB) leukemia)?
Answer: The TGI was greater than 39.5 µM.

Question: And the TGI (HOP-62 NSCLC)?
Answer: Its TGI is 11.7 µM.

Question: And the TGI (HOP-92 NSCLC)?
Answer: Its TGI is 5.61 µM.

Question: What about the TGI (HS 578T breast) of the same compound?
Answer: The TGI was 23.2 µM.

Question: And the TGI (HT29 colon)?
Answer: The TGI was 9.02 µM.

Question: What about the TGI (IGROV1 ovarian) of the same compound?
Answer: Its TGI is 14.5 µM.

Question: And the TGI (K-562 leukemia)?
Answer: The TGI was greater than 100 µM.

Question: And the TGI (KM12 colon)?
Answer: Its TGI is 15.6 µM.

Question: And the TGI (LOX IMVI melanoma)?
Answer: Its TGI is 20.1 µM.

Question: And the TGI (M14 melanoma)?
Answer: Its TGI is 6.4 µM.

Question: What about the TGI (MALME-3M melanoma) of the same compound?
Answer: Its TGI is 7.35 µM.

Question: And the TGI (MCF7 breast)?
Answer: The TGI was 19.9 µM.

Question: What about the TGI (MDA-MB-231 breast) of the same compound?
Answer: Its TGI is 9.03 µM.

Question: And the TGI (MDA-MB-435)?
Answer: Its TGI is 5.63 µM.

Question: And the TGI (MDA-N)?
Answer: Its TGI is 6.17 µM.

Question: What about the TGI (MOLT-4 leukemia) of the same compound?
Answer: The TGI was greater than 100 µM.

Question: And the TGI (NCI-H226 lung)?
Answer: Its TGI is 33.8 µM.

Question: And the TGI (NCI-H23 lung)?
Answer: The TGI was 10.6 µM.

Question: And the TGI (NCI-H460 lung)?
Answer: The TGI was 6.63 µM.

Question: What about the TGI (NCI-H522 lung) of the same compound?
Answer: The TGI was 3.96 µM.

Question: What about the TGI (NCI/ADR-RES ovarian) of the same compound?
Answer: Its TGI is 33.5 µM.

Question: What about the TGI (OVCAR-3 ovarian) of the same compound?
Answer: Its TGI is 20.4 µM.

Question: And the TGI (OVCAR-4 ovarian)?
Answer: The TGI was 14.1 µM.

Question: And the TGI (OVCAR-5 ovarian)?
Answer: Its TGI is 23.1 µM.

Question: And the TGI (OVCAR-8 ovarian)?
Answer: The TGI was 15.4 µM.

Question: What about the TGI (PC-3 prostate) of the same compound?
Answer: Its TGI is 13.7 µM.

Question: And the TGI (RPMI-8226 leukemia)?
Answer: The TGI was 3.29 µM.

Question: What about the TGI (RXF 393 renal) of the same compound?
Answer: Its TGI is 6.58 µM.

Question: What about the TGI (SF-268 CNS) of the same compound?
Answer: The TGI was 25.1 µM.

Question: And the TGI (SF-295 CNS)?
Answer: Its TGI is 28.6 µM.

Question: What about the TGI (SF-539 CNS) of the same compound?
Answer: Its TGI is 10.4 µM.

Question: And the TGI (SK-MEL-2 melanoma)?
Answer: Its TGI is 10.8 µM.

Question: And the TGI (SK-MEL-28 melanoma)?
Answer: The TGI was 18.2 µM.

Question: And the TGI (SK-MEL-5 melanoma)?
Answer: Its TGI is 3.38 µM.

Question: And the TGI (SK-OV-3 ovarian)?
Answer: Its TGI is 83.3 µM.

Question: What about the TGI (SN12C renal) of the same compound?
Answer: Its TGI is 10.6 µM.

Question: What about the TGI (SNB-19 CNS) of the same compound?
Answer: The TGI was 26.1 µM.

Question: What about the TGI (SNB-75 CNS) of the same compound?
Answer: The TGI was 24.8 µM.

Question: What about the TGI (SW-620 colon) of the same compound?
Answer: The TGI was 24.5 µM.

Question: What about the TGI (T-47D breast) of the same compound?
Answer: The TGI was 93.6 µM.

Question: What about the TGI (TK-10 renal) of the same compound?
Answer: The TGI was 21.4 µM.

Question: And the TGI (U251 CNS)?
Answer: Its TGI is 12.4 µM.

Question: And the TGI (UACC-257 melanoma)?
Answer: Its TGI is 15.6 µM.

Question: And the TGI (UACC-62 melanoma)?
Answer: Its TGI is 15.5 µM.

Question: What about the TGI (UO-31 renal) of the same compound?
Answer: The TGI was 14.8 µM.

Question: What does the source list for `COc1ccc2c(c1)c(=O)c1c(NCCN(C)C)ccc3c(=O)n(CCN(C)C)c(=O)n2c31`?
Answer: TGI (786-0 renal): 0.87 µM; TGI (A498 renal): 1.35 µM; TGI (A549 NSCLC): 10.2 µM; TGI (ACHN renal): 3.85 µM; TGI (BT-549 breast): 3.22 µM; TGI (CAKI-1 renal): 0.599 µM; TGI (COLO 205 colon): 0.247 µM; TGI (DU-145 prostate): 1.23 µM; TGI (EKVX NSCLC): 1.31 µM; TGI (HCC-2998 colon): 0.569 µM; TGI (HCT-116 colon): 1.06 µM; TGI (HCT-15 colon): 2.62 µM; TGI (HL-60(TB) leukemia): 0.569 µM; TGI (HOP-62 NSCLC): 1.78 µM; TGI (HOP-92 NSCLC): 0.791 µM; TGI (HS 578T breast): 0.841 µM; TGI (HT29 colon): 1.39 µM; TGI (IGROV1 ovarian): 1.2 µM; TGI (K-562 leukemia): 0.0354 µM; TGI (KM12 colon): 0.659 µM; TGI (LOX IMVI melanoma): 1.22 µM; TGI (M14 melanoma): 0.835 µM; TGI (MALME-3M melanoma): 1.02 µM; TGI (MCF7 breast): 4.75 µM; TGI (MDA-MB-231 breast): 0.855 µM; TGI (MDA-MB-435): 0.538 µM; TGI (MDA-N): 0.254 µM; TGI (NCI-H226 lung): 0.892 µM; TGI (NCI-H23 lung): 0.315 µM; TGI (NCI-H460 lung): 1.46 µM; TGI (NCI-H522 lung): 0.31 µM; TGI (NCI/ADR-RES ovarian): 3.63 µM; TGI (OVCAR-3 ovarian): 2.11 µM; TGI (OVCAR-4 ovarian): 1.7 µM; TGI (OVCAR-5 ovarian): 12.6 µM; TGI (OVCAR-8 ovarian): 3.1 µM; TGI (PC-3 prostate): 0.816 µM; TGI (RPMI-8226 leukemia): 0.3 µM; TGI (SF-268 CNS): 2.13 µM; TGI (SF-295 CNS): 12 µM; TGI (SK-MEL-2 melanoma): 0.415 µM; TGI (SK-MEL-28 melanoma): 3.71 µM; TGI (SK-MEL-5 melanoma): 0.594 µM; TGI (SK-OV-3 ovarian): 11.9 µM; TGI (SN12C renal): 0.594 µM; TGI (SNB-19 CNS): 4.3 µM; TGI (SNB-75 CNS): 0.719 µM; TGI (T-47D breast): 5.77 µM; TGI (TK-10 renal): 3.45 µM; TGI (U251 CNS): 2.29 µM; TGI (UACC-257 melanoma): 0.804 µM; TGI (UACC-62 melanoma): 0.984 µM; TGI (UO-31 renal): 1.03 µM
